How the values were obtained:
Test in all cases: relative viability (nuclei count vs DMSO), 5 days (fraction); higher = more cells survive
[1] = compound: OCc1c[nH]c2ccccc12 [Indole-3-carbinol] + CS(=O)(=O)CCNCc1ccc(-c2ccc3ncnc(Nc4ccc(OCc5cccc(F)c5)c(Cl)c4)c3c2)o1 [Lapatinib] (partner 2 µM)
Summary of the method: (§1)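 One day after seeding in 1536-well plates, lung cancer cell lines were dosed by pin tool. Dosing was either single-drug or a fixed anchor-drug dose plus five library-drug doses (not always all listed) in √10 steps. After 5 days, nuclei were stained in one fix-and-stain step and counted on 4× images, and relative viability is the nuclei count of treated wells over that of vehicle wells, given as the median of duplicate plates.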

[2] = compound: OCc1c[nH]c2ccccc12 [Indole-3-carbinol] + Cc1nc(NC(=O)N2CCC[C@H]2C(N)=O)sc1-c1ccnc(C(C)(C)C(F)(F)F)c1 [Alpelisib] (partner 2 µM)
Summary of the method: as §1

[3] = compound: OCc1c[nH]c2ccccc12 [Indole-3-carbinol] + Cc1nc(Nc2ncc(C(=O)Nc3c(C)cccc3Cl)s2)cc(N2CCN(CCO)CC2)n1 [Dasatinib] (partner 0.075 µM)
Summary of the method: as §1

[4] = compound: OCc1c[nH]c2ccccc12 [Indole-3-carbinol] + N=C(N)NC(=N)NCCc1ccccc1 [Phenformin] (partner 250 µM)
Summary of the method: as §1

[5] = compound: OCc1c[nH]c2ccccc12 [Indole-3-carbinol] + NC(=O)Nc1cc(-c2cccc(F)c2)sc1C(=O)N[C@H]1CCCNC1 [AZD7762] (partner 0.2 µM)
Summary of the method: as §1

HCC-366
relative viability ([1]; first compound 0.253 µM): 1.07 | relative viability ([1]; first compound 0.8 µM): 0.867 | relative viability ([1]; first compound 2.53 µM): 0.985 | relative viability ([1]; first compound 8 µM): 0.987 | relative viability ([2]; first compound 0.253 µM): 0.505 | relative viability ([2]; first compound 0.8 µM): 0.264 | relative viability ([2]; first compound 2.53 µM): 0.48 | relative viability ([2]; first compound 8 µM): 0.381 | relative viability ([3]; first compound 0.253 µM): 0.626 | relative viability ([3]; first compound 0.8 µM): 0.721 | relative viability ([3]; first compound 2.53 µM): 0.724 | relative viability ([3]; first compound 8 µM): 0.601 | relative viability ([4]; first compound 0.253 µM): 0.645 | relative viability ([4]; first compound 0.8 µM): 0.61 | relative viability ([4]; first compound 2.53 µM): 0.696 | relative viability ([4]; first compound 8 µM): 0.565 | relative viability ([5]; first compound 0.253 µM): 0.265 | relative viability ([5]; first compound 0.8 µM): 0.242 | relative viability ([5]; first compound 2.53 µM): 0.355 | relative viability ([5]; first compound 8 µM): 0.258

HCC-827
relative viability ([1]; first compound 0.253 µM): 0.202 | relative viability ([1]; first compound 0.8 µM): 0.18 | relative viability ([1]; first compound 2.53 µM): 0.227 | relative viability ([1]; first compound 8 µM): 0.191 | relative viability ([2]; first compound 0.253 µM): 0.911 | relative viability ([2]; first compound 0.8 µM): 1 | relative viability ([2]; first compound 2.53 µM): 0.99 | relative viability ([2]; first compound 8 µM): 0.985 | relative viability ([3]; first compound 0.253 µM): 0.338 | relative viability ([3]; first compound 0.8 µM): 0.315 | relative viability ([3]; first compound 2.53 µM): 0.316 | relative viability ([3]; first compound 8 µM): 0.357 | relative viability ([4]; first compound 0.253 µM): 0.389 | relative viability ([4]; first compound 0.8 µM): 0.383 | relative viability ([4]; first compound 2.53 µM): 0.417 | relative viability ([4]; first compound 8 µM): 0.364 | relative viability ([5]; first compound 0.253 µM): 0.228 | relative viability ([5]; first compound 0.8 µM): 0.192 | relative viability ([5]; first compound 2.53 µM): 0.213 | relative viability ([5]; first compound 8 µM): 0.265

HOP-62
relative viability ([1]; first compound 0.253 µM): 0.957 | relative viability ([1]; first compound 0.8 µM): 0.874 | relative viability ([1]; first compound 2.53 µM): 1.11 | relative viability ([1]; first compound 8 µM): 0.966 | relative viability ([2]; first compound 0.253 µM): 1.01 | relative viability ([2]; first compound 0.8 µM): 0.795 | relative viability ([2]; first compound 2.53 µM): 0.867 | relative viability ([2]; first compound 8 µM): 0.929 | relative viability ([3]; first compound 0.253 µM): 0.701 | relative viability ([3]; first compound 0.8 µM): 0.693 | relative viability ([3]; first compound 2.53 µM): 0.719 | relative viability ([3]; first compound 8 µM): 0.651 | relative viability ([4]; first compound 0.253 µM): 0.724 | relative viability ([4]; first compound 0.8 µM): 0.654 | relative viability ([4]; first compound 2.53 µM): 0.671 | relative viability ([4]; first compound 8 µM): 0.628 | relative viability ([5]; first compound 0.253 µM): 0.65 | relative viability ([5]; first compound 0.8 µM): 0.61 | relative viability ([5]; first compound 2.53 µM): 0.631 | relative viability ([5]; first compound 8 µM): 0.607

LC-2-ad
relative viability ([1]; first compound 0.253 µM): 0.977 | relative viability ([1]; first compound 0.8 µM): 0.974 | relative viability ([1]; first compound 2.53 µM): 0.893 | relative viability ([1]; first compound 8 µM): 0.938 | relative viability ([2]; first compound 0.253 µM): 0.91 | relative viability ([2]; first compound 0.8 µM): 0.874 | relative viability ([2]; first compound 2.53 µM): 0.945 | relative viability ([2]; first compound 8 µM): 0.856 | relative viability ([3]; first compound 0.253 µM): 0.657 | relative viability ([3]; first compound 0.8 µM): 0.735 | relative viability ([3]; first compound 2.53 µM): 0.589 | relative viability ([3]; first compound 8 µM): 0.595 | relative viability ([4]; first compound 0.253 µM): 0.597 | relative viability ([4]; first compound 0.8 µM): 0.525 | relative viability ([4]; first compound 2.53 µM): 0.638 | relative viability ([4]; first compound 8 µM): 0.588 | relative viability ([5]; first compound 0.253 µM): 0.865 | relative viability ([5]; first compound 0.8 µM): 0.873 | relative viability ([5]; first compound 2.53 µM): 0.828 | relative viability ([5]; first compound 8 µM): 0.82

LCLC-97TM1
relative viability ([1]; first compound 0.253 µM): 0.599 | relative viability ([1]; first compound 0.8 µM): 0.935 | relative viability ([1]; first compound 2.53 µM): 0.911 | relative viability ([1]; first compound 8 µM): 0.582 | relative viability ([2]; first compound 0.253 µM): 0.203 | relative viability ([2]; first compound 0.8 µM): 0.277 | relative viability ([2]; first compound 2.53 µM): 0.242 | relative viability ([2]; first compound 8 µM): 0.227 | relative viability ([3]; first compound 0.253 µM): 0.835 | relative viability ([3]; first compound 0.8 µM): 0.949 | relative viability ([3]; first compound 2.53 µM): 0.944 | relative viability ([3]; first compound 8 µM): 0.908 | relative viability ([4]; first compound 0.253 µM): 0.477 | relative viability ([4]; first compound 0.8 µM): 0.435 | relative viability ([4]; first compound 2.53 µM): 0.425 | relative viability ([4]; first compound 8 µM): 0.443 | relative viability ([5]; first compound 0.253 µM): 0.39 | relative viability ([5]; first compound 0.8 µM): 0.297 | relative viability ([5]; first compound 2.53 µM): 0.236 | relative viability ([5]; first compound 8 µM): 0.234

LK-2
relative viability ([1]; first compound 0.253 µM): 0.883 | relative viability ([1]; first compound 0.8 µM): 0.864 | relative viability ([1]; first compound 2.53 µM): 1.13 | relative viability ([1]; first compound 8 µM): 1.04 | relative viability ([2]; first compound 0.253 µM): 1.11 | relative viability ([2]; first compound 0.8 µM): 1.02 | relative viability ([2]; first compound 2.53 µM): 1.25 | relative viability ([2]; first compound 8 µM): 1.05 | relative viability ([3]; first compound 0.253 µM): 0.262 | relative viability ([3]; first compound 0.8 µM): 0.297 | relative viability ([3]; first compound 2.53 µM): 0.299 | relative viability ([3]; first compound 8 µM): 0.273 | relative viability ([4]; first compound 0.253 µM): 0.245 | relative viability ([4]; first compound 0.8 µM): 0.381 | relative viability ([4]; first compound 2.53 µM): 0.606 | relative viability ([4]; first compound 8 µM): 0.563 | relative viability ([5]; first compound 0.253 µM): 0.454 | relative viability ([5]; first compound 0.8 µM): 0.363 | relative viability ([5]; first compound 2.53 µM): 0.324 | relative viability ([5]; first compound 8 µM): 0.539

LOU-NH91
relative viability ([1]; first compound 0.253 µM): 0.762 | relative viability ([1]; first compound 0.8 µM): 0.706 | relative viability ([1]; first compound 2.53 µM): 0.748 | relative viability ([1]; first compound 8 µM): 0.771 | relative viability ([2]; first compound 0.253 µM): 0.746 | relative viability ([2]; first compound 0.8 µM): 0.706 | relative viability ([2]; first compound 2.53 µM): 0.703 | relative viability ([2]; first compound 8 µM): 0.728 | relative viability ([3]; first compound 0.253 µM): 0.621 | relative viability ([3]; first compound 0.8 µM): 0.573 | relative viability ([3]; first compound 2.53 µM): 0.585 | relative viability ([3]; first compound 8 µM): 0.535 | relative viability ([4]; first compound 0.253 µM): 0.783 | relative viability ([4]; first compound 0.8 µM): 0.708 | relative viability ([4]; first compound 2.53 µM): 0.725 | relative viability ([4]; first compound 8 µM): 0.699 | relative viability ([5]; first compound 0.253 µM): 0.791 | relative viability ([5]; first compound 0.8 µM): 0.703 | relative viability ([5]; first compound 2.53 µM): 0.77 | relative viability ([5]; first compound 8 µM): 0.755

LU99A
relative viability ([1]; first compound 0.253 µM): 0.893 | relative viability ([1]; first compound 0.8 µM): 0.968 | relative viability ([1]; first compound 2.53 µM): 0.973 | relative viability ([1]; first compound 8 µM): 0.89 | relative viability ([2]; first compound 0.253 µM): 0.508 | relative viability ([2]; first compound 0.8 µM): 0.548 | relative viability ([2]; first compound 2.53 µM): 0.582 | relative viability ([2]; first compound 8 µM): 0.451 | relative viability ([3]; first compound 0.253 µM): 0.504 | relative viability ([3]; first compound 0.8 µM): 0.587 | relative viability ([3]; first compound 2.53 µM): 0.515 | relative viability ([3]; first compound 8 µM): 0.485 | relative viability ([4]; first compound 0.253 µM): 0.943 | relative viability ([4]; first compound 0.8 µM): 0.869 | relative viability ([4]; first compound 2.53 µM): 0.816 | relative viability ([4]; first compound 8 µM): 0.871 | relative viability ([5]; first compound 0.253 µM): 0.379 | relative viability ([5]; first compound 0.8 µM): 0.392 | relative viability ([5]; first compound 2.53 µM): 0.434 | relative viability ([5]; first compound 8 µM): 0.329

From the supplement of paper PMC10307832
